Structures can show the parent of a compound that is named as a salt. Where two headings read alike, the source gives them in different places.
Assays:
CCRF-CEM (ALL) = assay: cells; format: cell-based; settings: for Survival @ 25 nM / Survival @ 50 nM / Survival @ 125 nM: percentage of cell survival, 72 h; for IC50: 72 h treatment, AlamarBlue
From the text: (§1) The efficacy (evaluated by IC50) of clofarabine and 3 different compounds representing different class of clofarabine ProTides (monophosphate, diphosphate and triphosphate molecules) was compared.
(§2) The tested cancer cell lines were acute lymphoblastic leukaemia (ALL), acute myeloid leukaemia (AML) and lymphoma: CCRF-CEM (ALL), HL60 (AML), KG1 (AML), OCI-AML3 (AML) and RL (lymphoma), grown in suspension, in RPMI-1640 media, supplemented with 10% FBS serum and 1% pen strep, except for KG1 cell line for which FBS was 20%.
(§3) For all experiments, cells were plated on a 96 well plate, at a density of 10,000 cells/well in 50 μL media. Dilutions from stock concentration to working solutions were prepared in media; at twice the required concentration and 50 μL was added per well (this achieving the final concentrations described in results below). Control untreated received 50 μL of plain media. After 66 h 10 μL of resazurin was added per well (dilution 1:10). Cells were then incubated with for up to 6 h. After 72 h treatment, cytotoxicity assay (AlamarBlue™−resazurin dye) was performed to determine cell survival. Plates were scanned with a BioHit800 plate reader and data were analysed with Excel and GraphPad Prism.
(§4) A low IC50 indicates greater potency under these laboratory conditions.
(§5) Clofarabine, A, 5a, 5b, 5c, 5d, 5e and 5f were tested against CCRF-CEM and OCI-AML3 cells. Data is represented as the percentage ofcell survival for each ofthe different concentrations to which cells were exposed, rather than calculating a formal IC50 from only two or three datapoints.

OCI-AML3 (AML) = assay: cells; format: cell-based; settings: for Survival @ 50 nM: OCI-AML3, 50 nM; for Survival @ 50 nM / Survival @ 125 nM: percentage of cell survival, 72 h; for Survival @ 125 nM: OCI-AML3, 125 nM; for IC50: OCI-AML3, 72 h treatment, AlamarBlue
From the text: as §1, §2, §3, §4, §5

[1] = tested on: CCRF-CEM and OCI-AML3 cells; format: cell-based; settings: both cell lines
Method: as §3, §5

CCRF-CEM = assay: In vitro viability assay, CellTiterGlo, 72 h (Example A); format: cell-based; settings: for EC50: read-out: Ab EC50
Method: (§6) A compound of the invention was assayed for cytotoxic activity in an array of different solid tumours and haematological malignancies using the following assay.
(§7) In vitro viability assay was performed to assess the effects of compounds on cell viability in selected cell lines over 72 h using the CellTiterGlo (CTG, Promega-G7573) assay. The tests were performed in duplicates with treatment of compounds at 9 points, 3.16 folds titration in 96 well plates over ˜72 h. The compound starting concentrations were 198 μM. Cell viability assay using CellTiterGlo in 96-well plate were performed. Compound treatment 72 h, standard growth conditions, duplicates. Compounds were dissolved to 40 mM with thawed […]. Compounds were serially diluted at 3.16 fold in thawed DMSO and warmed to 37° C. before being dissolved in media (2 μL+200 μL). After compounds were dissolved in media, media containing compounds were warmed to 37° C. in incubator and then compounds in media were added to cell plates (50 μL+50 μL) in duplicates. The compounds' final concentrations were from 198 μM to 19.8 nM. All compound solubilities were checked and recorded again, then the plates were transferred to CO2 tissue culture incubator immediately and incubated for 3 days. DMSO final concentration is 0.5%.

HL-60 = assay: as above; format: cell-based; settings: HL-60, CellTiterGlo; for EC50: read-out: Ab EC50
Method: as §6, §7

HT29 = assay: as above; format: cell-based
Method: as §6, §7

HepG2 = assay: as above; format: cell-based; settings: for EC50: read-out: Ab EC50
Method: as §6, §7

K562 = assay: as above; format: cell-based; settings: for EC50: read-out: Ab EC50
Method: as §6, §7

KG-1 = assay: as above; format: cell-based; settings: KG-1, CellTiterGlo; for EC50: read-out: Ab EC50
Method: as §6, §7

MOLT-4 = assay: as above; format: cell-based; settings: MOLT-4, CellTiterGlo; for EC50: read-out: Ab EC50
Method: as §6, §7

RL = assay: as above; format: cell-based; settings: for EC50: read-out: Ab EC50
Method: as §6, §7

RPMI-8226 = assay: as above; format: cell-based, Human; settings: RPMI-8226, CellTiterGlo; for EC50: read-out: Ab EC50
Method: as §6, §7

HL60 (AML) = assay: Cytotoxicity assay (AlamarBlue - resazurin dye), 72 h (Example B); format: cell-based
From the text: as §1, §2, §3, §4

KG1 (AML) = assay: as above; format: cell-based; settings: KG1, 72 h treatment
From the text: as §1, §2, §3, §4

RL (lymphoma) = assay: as above; format: cell-based; settings: 72 h treatment
From the text: as §1, §2, §3, §4

[2] = Homo sapiens, HL-60, HL60, 72 h treatment

Compound: (2S)-Methyl 2-(((((((((2R,3R,4S,5R)-5-(6-amino-2-chloro-9H-purin-9-yl)-4-fluoro-3-hydroxytetrahydrofuran-2-yl)methoxy)(hydroxy)phosphoryl)oxy)(hydroxy)phosphoryl)oxy)(phenoxy)phosphoryl)amino)-4-(methylthio)butanoate di-triethylammonium salt [Compound 5d]
- Survival @ 25 nM (CCRF-CEM (ALL)): 92%
- Survival @ 50 nM (CCRF-CEM (ALL)): 16%
- Survival @ 125 nM (CCRF-CEM (ALL)): 14%
- Survival @ 50 nM (OCI-AML3 (AML)): 61%
- Survival @ 125 nM (OCI-AML3 (AML)): 29%
- efficacy compared to A and clofarabine [1]: superior efficacy

Compound: (2S)-Isopropyl 2-(((((((((2R,3R,4S,5R)-5-(6-amino-2-chloro-9H-purin-9-yl)-4-fluoro-3-hydroxytetrahydrofuran-2-yl)methoxy)(hydroxy)phosphoryl)oxy)(hydroxy) phosphoryl)oxy)(phenoxy)phosphoryl)amino)propanoate di-triethylammonium salt [Compound 5c]
- Survival @ 25 nM (CCRF-CEM (ALL)): 93%
- Survival @ 50 nM (CCRF-CEM (ALL)): 94%
- Survival @ 125 nM (CCRF-CEM (ALL)): 14%
- Survival @ 50 nM (OCI-AML3 (AML)): 99%
- Survival @ 125 nM (OCI-AML3 (AML)): 61%

Compound: (2S)-Cyclohexyl 2-(((((((((2R,3R,4S,5R)-5-(6-amino-2-chloro-9H-purin-9-yl)-4-fluoro-3-hydroxytetrahydrofuran-2-yl)methoxy)(hydroxy)phosphoryl)oxy)(hydroxy)phosphoryl)oxy)(phenoxy)phosphoryl)amino)-3-methylbutanoate di-triethylammonium salt [Compound 5e]
- Survival @ 25 nM (CCRF-CEM (ALL)): 99%
- Survival @ 50 nM (CCRF-CEM (ALL)): 75%
- Survival @ 125 nM (CCRF-CEM (ALL)): 90%
- Survival @ 50 nM (OCI-AML3 (AML)): 100%
- Survival @ 125 nM (OCI-AML3 (AML)): 95%

Compound: C[C@H](NP(=O)(Oc1cccc2ccccc12)OP(=O)(O)OP(=O)(O)OC[C@H]1O[C@@H](n2cnc3c(N)nc(Cl)nc32)[C@@H](F)[C@@H]1O)C(=O)OCc1ccccc1 (stereo partly drawn) [Compound 5b, (2S)-Benzyl 2-(((((((((2R,3R,4S,5R)-5-(6-amino-2-chloro-9H-purin-9-yl)-4-fluoro-3-hydroxytetrahydrofuran-2-yl)methoxy)(hydroxy)phosphoryl)oxy)(hydroxy)phosphoryl)oxy)(naphthalen-1-yloxy)phosphoryl)amino)propanoate di-triethylammonium salt]
- Survival @ 25 nM (CCRF-CEM (ALL)): 36%
- Survival @ 50 nM (CCRF-CEM (ALL)): 18%
- Survival @ 125 nM (CCRF-CEM (ALL)): 13%
- Survival @ 50 nM (OCI-AML3 (AML)): 64%
- Survival @ 125 nM (OCI-AML3 (AML)): 24%
- efficacy compared to A and clofarabine [1]: superior efficacy

Compound: (2S)-Neopentyl 2-(((((((((2R,3R,4S,5R)-5-(6-amino-2-chloro-9H-purin-9-yl)-4-fluoro-3-hydroxytetrahydrofuran-2-yl)methoxy)(hydroxy)phosphoryl)oxy)(hydroxy)phosphoryl)oxy)(phenoxy)phosphoryl)amino)-3-phenylpropanoate di-triethylammonium salt [Compound 5f]
- Survival @ 25 nM (CCRF-CEM (ALL)): 85%
- Survival @ 50 nM (CCRF-CEM (ALL)): 16%
- Survival @ 125 nM (CCRF-CEM (ALL)): 14%
- Survival @ 50 nM (OCI-AML3 (AML)): 57%
- Survival @ 125 nM (OCI-AML3 (AML)): 32%
- efficacy compared to A and clofarabine [1]: superior efficacy

Compound: C[C@H](NP(=O)(OC[C@H]1O[C@@H](n2cnc3c(N)nc(Cl)nc32)C(F)[C@H]1O)Oc1ccccc1)C(=O)OCc1ccccc1 (some centres unmarked) [A]
- Top Inhibit (CCRF-CEM): 99%
- EC50 (CCRF-CEM; Homo sapiens): 80 nM
- Top Inhibit (HL-60): 95%
- EC50 (HL-60; Homo sapiens): 220 nM
- Top Inhibit (HT29): 86%
- EC50 (HT29; Homo sapiens, HT-29, read-out: Ab EC50): 1730 nM
- Top Inhibit (HepG2): 99%
- EC50 (HepG2; Homo sapiens): 7630 nM
- Top Inhibit (K562): 85%
- EC50 (K562; Homo sapiens): 27300 nM
- EC50 (KG-1; Homo sapiens): 440 nM
- Top Inhibit (KG-1): 93%
- EC50 (MOLT-4; Homo sapiens): 250 nM
- Top Inhibit (MOLT-4): 100%
- Top Inhibit (RL): 90%
- EC50 (RL; Homo sapiens): 4260 nM
- EC50 (RPMI-8226; Homo sapiens): 9200 nM
- Top Inhibit (RPMI-8226): 83%
- Survival @ 25 nM (CCRF-CEM (ALL)): 96%
- Survival @ 50 nM (CCRF-CEM (ALL)): 100%
- Survival @ 125 nM (CCRF-CEM (ALL)): 100%
- IC50 (CCRF-CEM (ALL); Homo sapiens): 275 nM
- IC50 (OCI-AML3 (AML); Homo sapiens, OCI-AML-3): 253 nM
- Survival @ 50 nM (OCI-AML3 (AML)): 99%
- Survival @ 125 nM (OCI-AML3 (AML)): 96%
- IC50 (HL60 (AML); [2]): 91 nM
- IC50 (KG1 (AML)): 1760 nM
- IC50 (RL (lymphoma)): 399 nM

Compound: Clofarabine
- Top Inhibit (CCRF-CEM): 99%
- EC50 (CCRF-CEM): < 20 nM
- Top Inhibit (HL-60): 97%
- EC50 (HL-60): 40 nM
- Top Inhibit (HT29): 68%
- EC50 (HT29; read-out: Ab EC50): 260 nM
- Top Inhibit (HepG2): 57%
- EC50 (HepG2): 1090 nM
- Top Inhibit (K562): 32%
- EC50 (K562): > 198000 nM
- Top Inhibit (KG-1): 93%
- EC50 (KG-1): 70 nM
- Top Inhibit (MOLT-4): 94%
- EC50 (MOLT-4): < 20 nM
- Top Inhibit (RL): 61%
- EC50 (RL): 310 nM
- Top Inhibit (RPMI-8226): 80%
- EC50 (RPMI-8226): 27600 nM
- Survival @ 25 nM (CCRF-CEM (ALL)): 36%
- Survival @ 50 nM (CCRF-CEM (ALL)): 17%
- Survival @ 125 nM (CCRF-CEM (ALL)): 13%
- IC50 (CCRF-CEM (ALL)): 40.5 nM
- Survival @ 50 nM (OCI-AML3 (AML)): 47%
- Survival @ 125 nM (OCI-AML3 (AML)): 19%
- IC50 (OCI-AML3 (AML)): 74 nM
- IC50 (HL60 (AML); HL60, 72 h treatment): 41.5 nM
- IC50 (KG1 (AML)): 244 nM
- IC50 (RL (lymphoma)): 114 nM

Compound: C[C@H](NP(=O)(Oc1ccccc1)OP(=O)(O)OC[C@H]1O[C@@H](n2cnc3c(N)nc(Cl)nc32)C(F)[C@H]1O)C(=O)OCc1ccccc1 (some centres unmarked) [B]
- IC50 (CCRF-CEM (ALL); Homo sapiens): 82.5 nM
- IC50 (OCI-AML3 (AML); Homo sapiens, OCI-AML-3): 121 nM
- IC50 (HL60 (AML); [2]): 71.9 nM
- IC50 (KG1 (AML)): 267 nM
- IC50 (RL (lymphoma)): 153 nM

Reference: patent publication US20220024963A1, “SALT OF TRIPHOSPHATE PHOSPHORAMIDATES OF NUCLEOTIDES AS ANTICANCER COMPOUNDS” (priority 2019, published 2022)
